Like-named read-outs stand apart in the source and are kept apart here.
Assays:
H3 receptor = biological target: T1, H3 receptor (Rattus norvegicus, UniProt Q9QYN8); assay: Rat H3 ex vivo receptor occupancy assay; conditions: dose giving 50% H3 receptor occupancy; ex vivo binding of [3H] R-α-methylhistamine in rat frontal cortical membranes
T1 construct: membranes to be tested were prepared from brain frontal cortex membranes by homogenization; from tissue; host or cells: frontal cortex of adult male Sprague-Dawley rats
T1 sequence (Q9QYN8 whole entry): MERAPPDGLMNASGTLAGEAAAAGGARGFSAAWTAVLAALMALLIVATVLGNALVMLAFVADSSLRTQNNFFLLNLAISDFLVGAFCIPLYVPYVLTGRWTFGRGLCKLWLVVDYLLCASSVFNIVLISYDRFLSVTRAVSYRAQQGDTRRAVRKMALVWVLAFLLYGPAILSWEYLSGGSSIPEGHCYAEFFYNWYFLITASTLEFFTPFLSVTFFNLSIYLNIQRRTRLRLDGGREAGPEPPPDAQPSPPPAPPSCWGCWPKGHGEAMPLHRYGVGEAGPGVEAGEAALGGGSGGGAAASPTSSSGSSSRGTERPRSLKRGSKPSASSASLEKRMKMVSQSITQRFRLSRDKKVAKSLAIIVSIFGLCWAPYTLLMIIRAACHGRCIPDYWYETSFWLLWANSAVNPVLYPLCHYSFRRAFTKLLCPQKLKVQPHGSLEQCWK
Procedure: This assay was designed to measure occupancy of H3 receptors by compounds provided herein by measuring the competition of binding to the H3 receptor with a radiolabeled ligand known to bind to the H3 receptor. More specifically, receptor occupancy was determined by ex vivo binding studies in rat cortical membranes.
Adult male Sprague-Dawley rats were treated with vehicle or compound at four different dose levels. After an appropriate pre-treatment time (typically 30 min to 1 hr), membranes to be tested were prepared from brain frontal cortex membranes by homogenization in ice-cold assay buffer. Frontal cortical membranes (400 μL containing an equivalent of 5 mg wet weight of tissue/tube) were incubated with 50 µL of [^3H] R-α-methylhistamine (final concentration 2 nM) and either 50 μL of buffer (total binding) or 50 μL of imetit (10 μM; non-specific binding) for 30 min at 25° C. in triplicates. Membrane bound radioactivity was recovered by filtration under vacuum through Skatron 11731 filters, pre-soaked in 0.5% PEI. Filters were rapidly washed with ice-cold 50 mM Tris buffer (wash setting 9,9,0) and radioactivity was determined by liquid scintillation counting (1 mL Packard MV Gold Scintillator). The amount of radioactivity in the membranes at the different doses was used generate a dose response curve and to calculate the ED50 (the dose that results in 50% receptor occupancy).
ED50 is the amount of drug at which 50% of the H3 receptors are occupied by the drug as measured by the amount of radioactivity measured at that dose relative to that measured when no drug (or vehicle) was administered.

Sprague-Dawley rats = assay: Rat EEG assay; format: in vivo; conditions: for number of wake and non-REM sleep bouts / wake bout duration / wake promotion / time spent in REM sleep / time spent in non-REM sleep / time spent in wake: EEG; for normalized power in the 40-60 Hz range (EEG spectral analysis): EEG spectra; for wake promotion: first 6 hours post-dosing; for time spent in REM sleep / time spent in non-REM sleep / time spent in wake: relative to vehicle treated animals
Procedure: The rat EEG assay was designed to measure electrical signals from the brain as a proxy for in vivo biological activity at the H3 receptor.
Specifically, animals were housed in a temperature-controlled recording room under a 12 hour/12 hour light/dark cycle, with food and water available ad libitum. Eight male Sprague-Dawley rats were implanted with chronic recording devices for continuous recordings of electroencephalograph (EEG) via telemetry (Data Sciences Inc). A repeated measures design was employed in which each rat received eight separate dosings of the compound being tested with a minimum of 3 days between doses. […] EEG data were scored visually in 10 second epochs for wake, REM, and non-REM states. Scored data were analyzed and expressed as time spent in each state per hour. Cumulative time spent in wake, non-REM, and REM states were calculated for the 6 hour recording period. To determine whether any of the pharmacological treatments affected the consolidation of behavioral states, the duration and number of bouts for each state were calculated in hourly bins. A “bout” consisted of a minimum of two consecutive 10-second epochs of a given state and ended with any single state change epoch. The EEG spectra during wake and non-REM sleep were analyzed offline with a fast Fourier transform algorithm (NeuroScore software, Data Sciences Inc) on all epochs without a visually detectable artifact. Wake EEG spectra were analyzed in 1 Hz bins. Data were analyzed using two-way repeated-measures ANOVA.
For both compounds, there was an increase in the time spent in wake, a decrease in the time spent in non-REM sleep, and no change in the time spent in REM sleep relative to vehicle treated animals.

[1] = biological target: human histamine H3 receptor (Homo sapiens, UniProt Q9Y5N1); assay: H3 GTPγS assay (SPA method), histamine H3 in vitro assay; format: biochemical
human histamine H3 receptor, sequence (Q9Y5N1 whole entry): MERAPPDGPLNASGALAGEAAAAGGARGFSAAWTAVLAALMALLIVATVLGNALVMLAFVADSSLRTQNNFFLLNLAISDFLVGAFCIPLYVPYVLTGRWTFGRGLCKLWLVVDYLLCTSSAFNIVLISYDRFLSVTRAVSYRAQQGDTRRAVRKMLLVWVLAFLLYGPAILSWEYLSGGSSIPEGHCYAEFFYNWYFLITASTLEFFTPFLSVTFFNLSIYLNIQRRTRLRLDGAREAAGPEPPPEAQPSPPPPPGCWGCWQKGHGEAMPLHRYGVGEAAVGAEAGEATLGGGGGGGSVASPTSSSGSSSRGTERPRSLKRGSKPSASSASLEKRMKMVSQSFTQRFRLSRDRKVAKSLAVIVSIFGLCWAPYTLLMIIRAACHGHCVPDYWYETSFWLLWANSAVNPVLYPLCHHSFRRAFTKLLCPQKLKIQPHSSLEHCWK
Procedure: Briefly, cells expressing the human histamine H3 receptor were homogenized in 15 mM Tris-HCl pH 7.5, 2 mM MgCl2, 0.3 mM EDTA, and 1 mM EGTA. […] Membranes were frozen in liquid nitrogen until use. On the day of the assay, membranes were thawed and diluted in assay buffer (20 mM HEPES pH 7.4, 100 mM NaCl, 10 μg/ml saponin, 1 mM MgCl2) to give 500 μg/ml and mixed (v/v) with GDP in assay buffer for a final GDP concentration of 10 μM and incubated on ice for at least […]. PVT-WGA beads (Amersham, RPNQ001) were diluted in assay buffer at 50 mg/mL and mixed with GTPγ[^35S] (Amersham, SJ1308) diluted in assay buffer to give ˜25,000 dpm/10 μL and mixed vol/vol just before the start of the reaction.
For antagonists testing, 10 μL of a reference agonist ([…]) instead of 10 μL buffer was added at a concentration corresponding to the EC80 (30 nM).
The compounds provided herein were tested in the histamine H3 in vitro assay. In one embodiment, the respective HCl salts of the compounds provided herein were prepared using standard chemical procedures and tested in the histamine H3 in vitro assay.

[2] = membranes of cells expressing human H3, GTPγ[35S] SPA, antagonist testing with reference agonist at EC80 (30 nM), in one embodiment HCl salts tested, read-out: Potency (functional potency as indicated by IC50)

Compound | ED50 (H3 receptor) [mg/kg] | IC50 [1, 2] [nM] | other results
c1cn2cc(-c3ccc4c(c3)nc3n4CCN4CCCC[C@@H]4C3)ccc2n1 (single isomer, unassigned) [Compound 48] | ≤ 1 | < 10 | number of wake and non-REM sleep bouts (Sprague-Dawley rats): decrease; wake bout duration (Sprague-Dawley rats): increase; normalized power in the 40-60 Hz range (EEG spectral analysis) (Sprague-Dawley rats): increase; wake promotion (Sprague-Dawley rats): wake promoting; time spent in REM sleep (Sprague-Dawley rats): no change; time spent in non-REM sleep (Sprague-Dawley rats): decrease; time spent in wake (Sprague-Dawley rats): increase
c1cn2cc(-c3ccc4c(c3)nc3n4CCCN(C4CCC4)CC3)ccc2n1 [Compound 59, 3-cyclobutyl-10-(imidazo[1,2-a]pyridin-6-yl)-1,2,3,4,5,6-hexahydrobenzo[4,5]imidazo[1,2-a][1,5]diazocine] | ≤ 1 | < 10 | number of wake and non-REM sleep bouts (Sprague-Dawley rats): decrease; wake bout duration (Sprague-Dawley rats): increase; normalized power in the 40-60 Hz range (EEG spectral analysis) (Sprague-Dawley rats): increase; wake promotion (Sprague-Dawley rats): wake promoting; time spent in REM sleep (Sprague-Dawley rats): no change; time spent in non-REM sleep (Sprague-Dawley rats): decrease; time spent in wake (Sprague-Dawley rats): increase
c1cn2cc(-c3ccc4c(c3)nc3n4CCCN4CCCCC4C3)ccc2n1 (centres unmarked) [Compound 67, 12-(imidazo[1,2-a]pyridin-6-yl)-2,3,4,6,7,8,15,15a-octahydro-1H-benzo[4,5]imidazo[1,2-a]pyrido[2,1-d][1,5]diazocine] | – | < 10 | –
c1cc2c(cc1CN1CCOCC1)nc1n2CCCN2CCCCC2C1 (centres unmarked) [Compound 68, 4-((2,3,4,6,7,8,15,15a-octahydro-1H-benzo[4,5]imidazo[1,2-a]pyrido[2,1-d][1,5]diazocin-12-yl)methyl)morpholine] | – | < 100 | –
c1ccc2c(c1)CCN(Cc1ccc3c(c1)nc1n3CCCN3CCCCC3C1)C2 (centres unmarked) [Compound 69] | – | < 100 | –
Brc1ccc2c(c1)nc1n2CCN2CCCC2C1 (centres unmarked) [Compound 72, 10-bromo-2,3,5,6,13,13a-hexahydro-1H-benzo[4,5]imidazo[1,2-d]pyrrolo[2,1-g][1,4]diazepine] | – | – | IC50 [1]: < 100 nM
N#Cc1ccc(-c2ccc3c(c2)nc2n3CCN3CCCC3C2)cc1 (centres unmarked) [Compound 73, 4-(2,3,5,6,13,13a-hexahydro-1H-benzo[4,5]imidazo[1,2-d]pyrrolo[2,1-g][1,4]diazepin-10-yl)benzonitrile] | – | < 10 | –
c1cn2cc(-c3ccc4c(c3)nc3n4CCN4CCCC4C3)ccc2n1 (centres unmarked) [Compound 74, 10-(imidazo[1,2-a]pyridin-6-yl)-2,3,5,6,13,13a-hexahydro-1H-benzo[4,5]imidazo[1,2-d]pyrrolo[2,1-g][1,4]diazepine] | – | < 10 | –
c1ccc2c(c1)CCN(Cc1ccc3c(c1)nc1n3CCN3CCCC3C1)C2 (centres unmarked) [Compound 76, 10-((3,4-dihydroisoquinolin-2(1H)-yl)methyl)-2,3,5,6,13,13a-hexahydro-1H-benzo[4,5]imidazo[1,2-d]pyrrolo[2,1-g][1,4]diazepine] | – | < 10 | –
N#Cc1ccc(-c2ccc3c(c2)nc2n3CCCN3CCCC3C2)cc1 (centres unmarked) [Compound 80, 4-(1,2,3,5,6,7,14,14a-octahydrobenzo[4,5]imidazo[1,2-a]pyrrolo[2,1-d][1,5]diazocin-11-yl)benzonitrile] | – | < 10 | –
c1cc2c(cc1CN1CCOCC1)nc1n2CCCN(C2CCC2)CC1 [Compound 84, 4-((3-cyclobutyl-1,2,3,4,5,6-hexahydrobenzo[4,5]imidazo[1,2-a][1,5]diazocin-10-yl)methyl)morpholine] | ≥ 1 | < 10 | –

More lines, main results first:

ED50 (H3 receptor) [mg/kg] | IC50 [1, 2] [nM] | Compound | other results
≥ 1 | < 10 | c1ccc2c(c1)CCN(Cc1ccc3c(c1)nc1n3CCN3CCCC[C@@H]3C1)C2 (single isomer, unassigned) [Compound 64] | –
– | < 10 | c1cc2c(cc1CN1CCOCC1)nc1n2CCN2CCCC2C1 (centres unmarked) [Compound 75, 4-((2,3,5,6,13,13a-hexahydro-1H-benzo[4,5]imidazo[,2-d]pyrrolo[2,1-g][1,4]diazepin-10-yl)methyl)morpholine] | –
– | < 100 | Brc1ccc2c(c1)nc1n2CCCN2CCCC2C1 (centres unmarked) [Compound 79, 11-bromo-1,2,3,5,6,7,14,14a-octahydrobenzo[4,5]imidazo[1,2-a]pyrrolo[2,1-d][1,5]diazocine] | –
– | < 10 | c1cn2cc(-c3ccc4c(c3)nc3n4CCCN4CCCC4C3)ccc2n1 (centres unmarked) [Compound 81, 11-(imidazo[1,2-a]pyridin-6-yl)-1,2,3,5,6,7,14,14a-octahydrobenzo[4,5]imidazo[1,2-a]pyrrolo[2,1-d][1,5]diazocine] | –
≤ 1 | < 10 | c1ccc2c(c1)CCN(Cc1ccc3c(c1)nc1n3CCCN(C3CCC3)CC1)C2 [Compound 85, 3-cyclobutyl-10-((3,4-dihydroisoquinolin-2(1H)-yl)methyl)-1,2,3,4,5,6-hexahydrobenzo[4,5]imidazo[1,2-a][1,5]diazocine] | –

Reference: patent US20110065694A1 (priority 2009, published 2011)
